Laboratory results as given in the supplement of paper PMC10733146.

Assays:
Test in all cases: viability relative to DMSO control (fraction); higher = less drug effect (more viable cells)
Conditions in all cases: 48 h
[1] = tested on: primary AML patient cells (S002)
How it was run: (§1)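 The cells were primary mononuclear tumour cells, either fresh or cryopreserved, isolated by Ficoll from blood or bone marrow or derived from processed lymph node. Each well of a 384-well plate received 4 × 10^4 cells onto compounds pre-plated at five concentrations, with one well per concentration. The medium was RPMI-1640 with penicillin/streptomycin, L-glutamine and human serum, and plates stood at 37 °C and 5% CO2 for 48 h. Viability is reported as CellTiter-Glo luminescence relative to the median of 16 inner DMSO wells.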

[2] = tested on: primary AML patient cells (S007)
How it was run: as §1

[3] = tested on: primary AML patient cells (S009)
How it was run: as §1

[4] = tested on: primary AML patient cells (S019)
How it was run: as §1

[5] = tested on: primary AML patient cells (S037)
How it was run: as §1

[6] = tested on: primary AML patient cells (S055)
How it was run: as §1

[7] = tested on: primary AML patient cells (S071)
How it was run: as §1

[8] = tested on: primary AML patient cells (S072)
How it was run: as §1

[9] = tested on: primary AML patient cells (S079)
How it was run: as §1

[10] = tested on: primary AML patient cells (S089)
How it was run: as §1

[11] = tested on: primary AML patient cells (S091)
How it was run: as §1

[12] = tested on: primary DLBCL patient cells (S049)
How it was run: as §1

[13] = tested on: primary DLBCL patient cells (S076)
How it was run: as §1

[14] = tested on: primary DLBCL patient cells (S082)
How it was run: as §1

[15] = tested on: primary MCL patient cells (S041)
How it was run: as §1

[16] = tested on: primary T-NHL patient cells (S058)
How it was run: as §1

[17] = tested on: primary T-PLL patient cells (S008)
How it was run: as §1

SMILES: O=C(Nc1nc2ccccc2n1CCN1CCOCC1)c1cccc([N+](=O)[O-])c1 [IRAK-1/4 INHIBITOR I]
- viability ([1]; 0.016 µM): 0.955
- viability ([1]; 0.08 µM): 1.05
- viability ([1]; 0.4 µM): 0.901
- viability ([1]; 2 µM): 0.953
- viability ([1]; 10 µM): 1.03
- viability ([2]; 0.016 µM): 1.01
- viability ([2]; 0.08 µM): 0.989
- viability ([2]; 0.4 µM): 0.788
- viability ([2]; 2 µM): 0.469
- viability ([2]; 10 µM): 0.292
- viability ([3]; 0.016 µM): 1.01
- viability ([3]; 0.08 µM): 0.993
- viability ([3]; 0.4 µM): 0.965
- viability ([3]; 2 µM): 0.933
- viability ([3]; 10 µM): 0.98
- viability ([4]; 0.016 µM): 0.915
- viability ([4]; 0.08 µM): 1.04
- viability ([4]; 0.4 µM): 0.913
- viability ([4]; 2 µM): 0.867
- viability ([4]; 10 µM): 0.909
- viability ([5]; 0.016 µM): 0.878
- viability ([5]; 0.08 µM): 0.933
- viability ([5]; 0.4 µM): 0.895
- viability ([5]; 2 µM): 0.885
- viability ([5]; 10 µM): 1.02
- viability ([6]; 0.016 µM): 0.985
- viability ([6]; 0.08 µM): 0.994
- viability ([6]; 0.4 µM): 1.01
- viability ([6]; 2 µM): 1.02
- viability ([6]; 10 µM): 0.958
- viability ([7]; 0.016 µM): 0.925
- viability ([7]; 0.08 µM): 0.918
- viability ([7]; 0.4 µM): 0.815
- viability ([7]; 2 µM): 0.783
- viability ([7]; 10 µM): 0.636
- viability ([8]; 0.016 µM): 0.921
- viability ([8]; 0.08 µM): 0.985
- viability ([8]; 0.4 µM): 0.909
- viability ([8]; 2 µM): 0.869
- viability ([8]; 10 µM): 0.916
- viability ([9]; 0.016 µM): 0.929
- viability ([9]; 0.08 µM): 0.93
- viability ([9]; 0.4 µM): 0.885
- viability ([9]; 2 µM): 0.906
- viability ([9]; 10 µM): 0.949
- viability ([10]; 0.016 µM): 0.772
- viability ([10]; 0.08 µM): 0.973
- viability ([10]; 0.4 µM): 0.849
- viability ([10]; 2 µM): 1
- viability ([10]; 10 µM): 0.872
- viability ([11]; 0.016 µM): 0.911
- viability ([11]; 0.08 µM): 0.936
- viability ([11]; 0.4 µM): 0.951
- viability ([11]; 2 µM): 0.905
- viability ([11]; 10 µM): 0.798
- viability ([12]; 0.016 µM): 0.936
- viability ([12]; 0.08 µM): 0.955
- viability ([12]; 0.4 µM): 0.834
- viability ([12]; 2 µM): 0.833
- viability ([12]; 10 µM): 0.821
- viability ([13]; 0.016 µM): 0.94
- viability ([13]; 0.08 µM): 1.09
- viability ([13]; 0.4 µM): 1.01
- viability ([13]; 2 µM): 1
- viability ([13]; 10 µM): 1.11
- viability ([14]; 0.016 µM): 0.863
- viability ([14]; 0.08 µM): 0.932
- viability ([14]; 0.4 µM): 0.926
- viability ([14]; 2 µM): 1.02
- viability ([14]; 10 µM): 1.07
- viability ([15]; 0.016 µM): 0.947
- viability ([15]; 0.08 µM): 1.1
- viability ([15]; 0.4 µM): 0.955
- viability ([15]; 2 µM): 0.981
- viability ([15]; 10 µM): 0.993
- viability ([16]; 0.016 µM): 1.05
- viability ([16]; 0.08 µM): 1.25
- viability ([16]; 0.4 µM): 1.02
- viability ([16]; 2 µM): 1.07
- viability ([16]; 10 µM): 1.27
- viability ([17]; 0.016 µM): 0.933
- viability ([17]; 0.08 µM): 1
- viability ([17]; 0.4 µM): 0.935
- viability ([17]; 2 µM): 0.954
- viability ([17]; 10 µM): 1.03
